According to the supplement of paper PMC11061612:

Tests used:
A704 (Kidney Carcinoma) = test: Bliss excess, mean over the matrix (fraction); higher = more synergy
In short: (§1)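 Cell lines grown in DMEM/F12 or RPMI with 10% FBS were plated in 1536-well plates and held 24 hours at 37°C, 5% CO2 before 72 hours of exposure to two-drug dose matrices, with DMSO typically at 0.2%. CellTiter-Glo 2.0 luminescence gave viability, which was converted to inhibition. Vehicle wells were set to 0 and blank wells to 1. Combination Emax is the second-highest inhibition in the matrix, and Bliss excess is the observed combination effect minus the expected EA + EB − EA·EB, where EA and EB are the single-agent effects.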

[1] = system: EMC-BAC-2 (Non-Small Cell Lung Carcinoma); test: as above
In short: as §1

GOTO (Neuroblastoma) [2] = test: as above
In short: as §1

[3] = system: KYSE-50 (Esophageal Squamous Cell Carcinoma); test: as above
In short: as §1

NB7 (Neuroblastoma) [4] = test: as above
In short: as §1

[5] = system: PFSK-1 (Other Solid Carcinomas); test: as above
In short: as §1

[6] = system: VMRC-LCD (Lung Adenocarcinoma); test: as above
In short: as §1

[7] = system: DG-75 (Burkitt's Lymphoma); test: combination Emax (second highest fraction inhibited in the dose matrix, 72 h); higher = more inhibition; extreme values may be limits of the assay
In short: as §1

EW-13 (Ewing's Sarcoma) = test: as above
In short: as §1

GOTO (Neuroblastoma) [8] = test: as above
In short: as §1

[9] = system: HuP-T3 (Pancreatic Carcinoma); test: as above
In short: as §1

IMR-5 (Neuroblastoma) = test: as above
In short: as §1

[10] = system: KYSE-50 (Esophageal Squamous Cell Carcinoma); test: as above
In short: as §1

[11] = system: MFE-319 (Endometrial Carcinoma); test: as above
In short: as §1

NB7 (Neuroblastoma) [12] = test: as above
In short: as §1

[13] = system: NCI-H2405 (Lung Adenocarcinoma); test: as above
In short: as §1

[14] = system: NCI-H513 (Other Solid Carcinomas); test: as above
In short: as §1

[15] = system: OCUM-1 (Gastric Carcinoma); test: as above
In short: as §1

[16] = system: TGBC11TKB (Gastric Carcinoma); test: as above
In short: as §1

[17] = system: VMRC-LCD (Lung Adenocarcinoma); test: as above
In short: as §1
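Throughout, for Bliss excess, mean over the matrix: after 72 h of two-drug dosing.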

SMILES | Bliss excess (A704 (Kidney Carcinoma)) | Bliss excess [1] | Bliss excess (GOTO (Neuroblastoma) [2]) | Bliss excess [3] | Bliss excess (NB7 (Neuroblastoma) [4]) | Bliss excess [5] | Bliss excess [6] | combination Emax [7] | combination Emax (EW-13 (Ewing's Sarcoma)) | combination Emax (GOTO (Neuroblastoma) [8]) | combination Emax [9] | combination Emax (IMR-5 (Neuroblastoma)) | combination Emax [10] | combination Emax [11] | combination Emax (NB7 (Neuroblastoma) [12]) | combination Emax [13] | combination Emax [14] | combination Emax [15] | combination Emax [16] | combination Emax [17]
CC1(C)CCC(CN2CCN(c3ccc(C(=O)NS(=O)(=O)c4ccc(NCC5CCOCC5)c([N+](=O)[O-])c4)c(Oc4cnc5[nH]ccc5c4)c3)CC2)=C(c2ccc(Cl)cc2)C1 [Venetoclax] + COc1cc(Nc2ncc3c(n2)-c2ccc(Cl)cc2C(c2c(F)cccc2OC)=NC3)ccc1C(=O)O [Alisertib] (first compound max 1 µM, 7x7, partner max 10 µM) | -0.0913 | -0.0033 | -0.0217 | -0.0101 | -0.0193 | 0.0652 | -0.043 | 0.518 | 0.294 | 0.719 | 0.337 | 1 | 0.537 | 0.395 | 0.556 | 0.228 | 0.234 | 0.51 | 0.387 | 0.619
CN(CCO)CC[C@H](CSc1ccccc1)Nc1ccc(S(=O)(=O)NC(=O)c2ccc(N3CCC([C@@H](O)c4ccccc4-c4ccc(Cl)cc4)CC3)cc2)cc1S(=O)(=O)C(F)(F)F [AZD4320] + CCN(CCO)CCCOc1ccc2c(Nc3cc(CC(=O)Nc4cccc(F)c4)[nH]n3)ncnc2c1 [AZD2811] (first compound max 1 µM, 7x7, partner max 1 µM) | -0.0659 | -0.0251 | 0.0053 | -0.0211 | 0.0258 | -0.0176 | -0.0741 | 0.196 | 0.754 | 0.649 | 0.128 | 1 | 0.382 | 0.647 | 0.267 | 0.137 | 0.13 | 0.924 | 0.439 | 0.582
